Reference: ChEMBL document CHEMBL1201862, “PubChem BioAssay data set” (2004)
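Results reflect a 48-hour exposure of cells in 96-well plates to compound at five concentrations. GI50 marks 50% less growth.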 The source made the active and inactive calls. Cut-off read from the data, not from the text of the source: active = GI50 up to about 1.1 µM and inactive = higher.

Experiments:
Test in all cases: NCI anticancer screen, dose series, 48 h
SK-OV-3 = test system: SK-OV-3
IGROV-1 = test system: IGROV-1
SNB-19 = test system: SNB-19
HOP-92 = test system: HOP-92
SK-MEL-2 = test system: SK-MEL-2
SF-268 = test system: SF-268
NCI-H23 = test system: NCI-H23
NCI-H460 = test system: NCI-H460
HCC 2998 = test system: HCC 2998
A549 = test system: A549
786-0 = test system: 786-0
SK-MEL-28 = test system: SK-MEL-28
COLO 205 = test system: COLO 205
OVCAR-8 = test system: OVCAR-8
SNB-75 = test system: SNB-75
OVCAR-3 = test system: OVCAR-3

Measured: GI50

CN(C)CCCn1cnc2ncccc2c1=O
inactive: SK-OV-3 > 100 µM | IGROV-1 > 100 µM | SNB-19 > 100 µM | HOP-92 > 100 µM | SK-MEL-2 > 100 µM | SF-268 > 100 µM | NCI-H23 > 100 µM | NCI-H460 > 100 µM | HCC 2998 > 100 µM | A549 > 100 µM | 786-0 > 100 µM | SK-MEL-28 > 100 µM | COLO 205 55.1 µM | OVCAR-8 > 100 µM | SNB-75 > 100 µM | OVCAR-3 > 100 µM

CCOC(=O)C(c1ccsc1)P(=O)(OCC)OCC (centres undefined)
inactive: SK-OV-3 23 µM | SNB-19 21.5 µM | HOP-92 24.3 µM | SK-MEL-2 20 µM | SF-268 23.2 µM | NCI-H23 16 µM | NCI-H460 14.9 µM | HCC 2998 19.5 µM | A549 22.4 µM | 786-0 16.3 µM | SK-MEL-28 15.1 µM | COLO 205 13.3 µM | OVCAR-8 16.6 µM | SNB-75 24.1 µM | OVCAR-3 13.7 µM

O=C(Cc1nc2ccccc2o1)C(=O)Nc1cccc(Cl)c1
inactive: SK-OV-3 > 100 µM | IGROV-1 > 100 µM | SNB-19 > 100 µM | HOP-92 > 100 µM | SK-MEL-2 > 100 µM | SF-268 > 100 µM | NCI-H23 > 100 µM | NCI-H460 > 100 µM | HCC 2998 > 100 µM | A549 > 100 µM | 786-0 > 100 µM | SK-MEL-28 > 100 µM | COLO 205 > 100 µM | OVCAR-8 > 100 µM | SNB-75 > 100 µM | OVCAR-3 > 100 µM

O=C1CCC(=O)C12CCc1ccccc12
inactive: SK-OV-3 > 100 µM | IGROV-1 > 100 µM | HOP-92 > 100 µM | SF-268 > 100 µM | NCI-H23 > 100 µM | NCI-H460 > 100 µM | HCC 2998 > 100 µM | A549 > 100 µM | 786-0 > 100 µM | SK-MEL-28 > 100 µM | COLO 205 > 100 µM | OVCAR-8 > 100 µM | SNB-75 > 100 µM | OVCAR-3 > 100 µM

Nc1c2ccccc2nc2nccnc12
inactive: SK-OV-3 > 100 µM | IGROV-1 60.4 µM | SNB-19 > 100 µM | HOP-92 > 100 µM | SK-MEL-2 > 100 µM | SF-268 > 100 µM | NCI-H23 > 100 µM | NCI-H460 > 100 µM | HCC 2998 > 100 µM | A549 > 100 µM | 786-0 > 100 µM | SK-MEL-28 > 100 µM | COLO 205 > 100 µM | OVCAR-8 > 100 µM | SNB-75 > 100 µM | OVCAR-3 > 100 µM

CC1(C)CC(=O)C(/C(=N/NC(=S)NN)C(=O)Nc2nc3ccc([N+](=O)[O-])cc3s2)C(=O)C1
inactive: SK-OV-3 > 100 µM | IGROV-1 > 100 µM | SNB-19 > 100 µM | HOP-92 > 100 µM | SK-MEL-2 > 100 µM | SF-268 > 100 µM | NCI-H23 > 100 µM | NCI-H460 > 100 µM | HCC 2998 > 100 µM | A549 > 100 µM | 786-0 > 100 µM | SK-MEL-28 > 100 µM | COLO 205 > 100 µM | OVCAR-8 > 100 µM | SNB-75 > 100 µM | OVCAR-3 67.9 µM

COC(=O)C1=Cc2cc3c(cc2[C@H](c2ccc4c(c2)OCO4)C1C(=O)OC)OCO3 (some centres undefined)
inactive: SK-OV-3 > 100 µM | IGROV-1 1.73 µM | SNB-19 > 100 µM | HOP-92 27.4 µM | SF-268 > 100 µM | NCI-H23 > 100 µM | NCI-H460 89.9 µM | HCC 2998 > 100 µM | A549 > 100 µM | 786-0 > 100 µM | SK-MEL-28 > 100 µM | COLO 205 37.8 µM | OVCAR-8 > 100 µM | SNB-75 44.8 µM | OVCAR-3 44.9 µM

Cc1c2ccccc2cc2ccc3oc([N+](=O)[O-])cc3c12
inactive: SK-OV-3 > 100 µM | IGROV-1 > 100 µM | SNB-19 > 100 µM | HOP-92 > 100 µM | SK-MEL-2 5.47 µM | SF-268 > 100 µM | NCI-H460 6.19 µM | HCC 2998 > 100 µM | A549 > 100 µM | 786-0 > 100 µM | COLO 205 > 100 µM | OVCAR-8 > 100 µM | SNB-75 > 100 µM | OVCAR-3 > 100 µM

COC(=O)/C(=N\NC(N)=O)C(C#N)c1ccccc1 (centres undefined)
inactive: SK-OV-3 > 100 µM | SNB-19 > 100 µM | SK-MEL-2 > 100 µM | SF-268 > 100 µM | NCI-H23 > 100 µM | NCI-H460 > 100 µM | HCC 2998 > 100 µM | A549 > 100 µM | 786-0 > 100 µM | SK-MEL-28 > 100 µM | COLO 205 > 100 µM | OVCAR-8 > 100 µM | SNB-75 > 100 µM | OVCAR-3 > 100 µM

Cc1ccc(C(=O)CC2(O)C(=O)Nc3c(C)cc(Cl)cc32)cc1 (centres undefined)
inactive: SK-OV-3 > 100 µM | SNB-19 > 100 µM | HOP-92 > 100 µM | SK-MEL-2 > 100 µM | SF-268 > 100 µM | NCI-H23 > 100 µM | NCI-H460 > 100 µM | HCC 2998 > 100 µM | A549 > 100 µM | 786-0 > 100 µM | SK-MEL-28 > 100 µM | COLO 205 > 100 µM | OVCAR-8 > 100 µM | SNB-75 47.9 µM | OVCAR-3 > 100 µM

Cc1ccccc1NC(=O)c1cc(-c2ccc([N+](=O)[O-])cc2)nc(S)n1
inactive: SK-OV-3 > 100 µM | IGROV-1 > 100 µM | SNB-19 > 100 µM | HOP-92 > 100 µM | SK-MEL-2 > 100 µM | SF-268 > 100 µM | NCI-H23 > 100 µM | NCI-H460 > 100 µM | HCC 2998 > 100 µM | A549 > 100 µM | 786-0 > 100 µM | SK-MEL-28 > 100 µM | COLO 205 > 100 µM | OVCAR-8 > 100 µM | OVCAR-3 > 100 µM

CCOC(=O)C(Cc1c(C=O)[nH]c2ccccc12)(NC(=O)c1ccccc1)C(=O)OCC
inactive: SK-OV-3 23.9 µM | IGROV-1 20.4 µM | SNB-19 4.93 µM | HOP-92 11.7 µM | SK-MEL-2 16.5 µM | SF-268 15 µM | NCI-H23 13.7 µM | NCI-H460 24.3 µM | HCC 2998 12.2 µM | A549 19.1 µM | 786-0 16.7 µM | SK-MEL-28 16.9 µM | COLO 205 18.8 µM | OVCAR-8 19.1 µM | OVCAR-3 13 µM

CC(C)=CCC/C(C)=C/Cc1c(O)c(C)cc2c1[nH]c1cc(O)ccc12
inactive: SK-OV-3 > 25 µM | IGROV-1 > 25 µM | SNB-19 > 25 µM | HOP-92 > 25 µM | SK-MEL-2 > 25 µM | SF-268 > 25 µM | NCI-H460 > 25 µM | HCC 2998 > 25 µM | A549 > 25 µM | 786-0 > 25 µM | SK-MEL-28 > 25 µM | COLO 205 > 25 µM | OVCAR-8 > 25 µM | OVCAR-3 > 25 µM

O=C(C/C(=N\NC(=O)C[n+]1ccccc1)C(=O)Nc1nc2ccc([N+](=O)[O-])cc2s1)CC(c1ccccc1)c1c(O)c2ccccc2oc1=O (centres undefined)
inactive: SK-OV-3 > 100 µM | IGROV-1 > 100 µM | SNB-19 > 100 µM | HOP-92 > 100 µM | SK-MEL-2 > 100 µM | SF-268 > 100 µM | NCI-H23 > 100 µM | NCI-H460 > 100 µM | HCC 2998 > 100 µM | A549 > 100 µM | 786-0 > 100 µM | SK-MEL-28 > 100 µM | COLO 205 > 100 µM | OVCAR-8 > 100 µM | OVCAR-3 > 100 µM

CC(Oc1ccc(OCC2CCCCC2)cc1)C(N)=O (centres undefined)
inactive: SK-OV-3 > 100 µM | SK-MEL-2 > 100 µM | SF-268 > 100 µM | NCI-H23 > 100 µM | NCI-H460 > 100 µM | A549 > 100 µM | 786-0 > 100 µM | SK-MEL-28 > 100 µM | OVCAR-8 > 100 µM | SNB-75 > 100 µM | OVCAR-3 > 100 µM

COc1ccc(/C=C2\N=C(c3ccccc3)OC2=O)c(OCc2ccccc2)c1
inactive: IGROV-1 18.8 µM | SNB-19 28.4 µM | SF-268 54.2 µM | NCI-H460 53 µM | HCC 2998 > 100 µM | A549 41.5 µM | 786-0 20.1 µM | SK-MEL-28 > 100 µM | COLO 205 84.9 µM | OVCAR-8 22.9 µM | OVCAR-3 19 µM

c1ccc(CSc2nc3ccccc3nc2-c2cccs2)cc1
inactive: SK-OV-3 > 100 µM | IGROV-1 > 100 µM | SNB-19 > 100 µM | HOP-92 > 100 µM | SK-MEL-2 > 100 µM | SF-268 > 100 µM | NCI-H23 > 100 µM | NCI-H460 > 100 µM | HCC 2998 > 100 µM | A549 > 100 µM | 786-0 > 100 µM | SK-MEL-28 > 100 µM | COLO 205 > 100 µM | OVCAR-8 > 100 µM | SNB-75 > 100 µM | OVCAR-3 > 100 µM

Brc1ccc2c(C3CN[C@@H](c4c[nH]c5cc(Br)ccc45)CN3)c[nH]c2c1 (some centres undefined)
inactive: SK-OV-3 6.14 µM | IGROV-1 5.65 µM | SNB-19 9.46 µM | HOP-92 1.66 µM | SK-MEL-2 3.02 µM | SF-268 4.78 µM | NCI-H23 2.34 µM | NCI-H460 1.3 µM | HCC 2998 2 µM | A549 2.8 µM | 786-0 2.89 µM | SK-MEL-28 11.3 µM | COLO 205 1.9 µM | OVCAR-8 4.23 µM | SNB-75 16.1 µM | OVCAR-3 6.03 µM
